The values below come from ChEMBL document CHEMBL1124659 (J Med Chem, 1989).

For test [1], the species on record is Rattus norvegicus. In words: Agonistic activity in rat uterine preparations. The class given is functional.
Test [2] concerns the target T1, Angiotensin II receptor (Rattus norvegicus, UniProt P29089+P25095+P35351).
T1 sequence (P29089 whole entry): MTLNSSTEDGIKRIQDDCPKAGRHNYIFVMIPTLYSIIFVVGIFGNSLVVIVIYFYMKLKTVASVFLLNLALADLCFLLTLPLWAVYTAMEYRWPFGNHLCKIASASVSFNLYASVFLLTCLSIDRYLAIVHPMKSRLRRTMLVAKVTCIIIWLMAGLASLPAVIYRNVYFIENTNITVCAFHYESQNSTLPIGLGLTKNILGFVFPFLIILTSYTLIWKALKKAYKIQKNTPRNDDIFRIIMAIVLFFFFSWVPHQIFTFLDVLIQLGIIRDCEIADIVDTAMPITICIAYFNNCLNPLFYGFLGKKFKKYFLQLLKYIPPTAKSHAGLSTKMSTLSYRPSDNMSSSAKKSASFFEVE
T1 sequence (P25095 whole entry): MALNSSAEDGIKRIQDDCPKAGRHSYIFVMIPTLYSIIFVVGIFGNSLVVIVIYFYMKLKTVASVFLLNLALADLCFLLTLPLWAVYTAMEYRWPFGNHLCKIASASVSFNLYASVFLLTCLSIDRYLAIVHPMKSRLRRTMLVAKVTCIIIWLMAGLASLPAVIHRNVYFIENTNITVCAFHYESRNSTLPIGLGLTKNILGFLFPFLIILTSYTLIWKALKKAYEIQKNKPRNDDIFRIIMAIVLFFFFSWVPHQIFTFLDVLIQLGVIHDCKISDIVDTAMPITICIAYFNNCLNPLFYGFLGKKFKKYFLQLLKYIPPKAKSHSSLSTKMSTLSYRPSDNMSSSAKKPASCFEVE
T1 sequence (P35351 whole entry): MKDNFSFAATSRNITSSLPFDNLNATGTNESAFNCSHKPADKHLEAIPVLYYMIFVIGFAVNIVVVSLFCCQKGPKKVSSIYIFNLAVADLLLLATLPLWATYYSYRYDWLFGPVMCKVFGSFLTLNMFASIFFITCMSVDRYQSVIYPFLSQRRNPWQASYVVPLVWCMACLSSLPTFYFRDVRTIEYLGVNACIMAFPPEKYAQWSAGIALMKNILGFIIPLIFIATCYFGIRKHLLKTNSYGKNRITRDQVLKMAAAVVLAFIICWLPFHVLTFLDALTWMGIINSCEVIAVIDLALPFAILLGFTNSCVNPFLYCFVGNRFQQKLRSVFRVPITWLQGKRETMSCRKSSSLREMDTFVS
In words: Tested for inhibition of radioligand [Sar1,Ile5,8]AII binding to angiotensin II receptor in rat brain. In kind it is tissue-based.

The target in test [3] is T1, Angiotensin II receptor. In words: Tested for inhibition of radioligand [Sar1,Ile5,8]AII binding to angiotensin II receptor in rat uterus.
Test [4] is filed under the species Rattus norvegicus. In words: Inhibitory activity was determined in rat uterine preparations at a compound dose of 2 ng/mL. The class given is functional.
For test [5], the species on record is Rattus norvegicus. In words: Inhibitory activity was determined in rat uterine preparations at a compound dose of 6 ng/mL. In kind it is functional.
The species entered for test [6] is Rattus norvegicus. In words: Inhibitory activity was determined in rat uterine preparations at a compound dose of 4 ng/mL. The class given is functional.
For test [7], the target named is T2, Angiotensin II receptor (Rattus norvegicus) (UniProt P29089+P25095+P35351). In words: Inhibitory activity was determined against Angiotensin II receptor in rat uterine preparations at a compound dose of 4 ng/mL.
The species entered for test [8] is Rattus norvegicus. In words: Time period for the pressor response of angiotensin II to return to 50% of its treatment level at a compound dose of 10 ug. In kind it is functional, organism-based.
The species entered for test [9] is Rattus norvegicus. In words: Time period for the pressor response of angiotensin II to return to 50% of its treatment level at a compound dose of 30 ug. The class given is functional, organism-based.
Test [10] deals with T2, Angiotensin II receptor (Rattus norvegicus). In words: Inhibitory activity was determined against Angiotensin II receptor in rat uterine preparations at a compound dose of 2 ng/mL.
For test [11] the target is unchanged. In words: Inhibitory activity was determined against Angiotensin II receptor in rat uterine preparations at a compound dose of 6 ng/mL.
Test [12] is filed under the species Rattus norvegicus. Description: Time period for the pressor response of angiotensin II to return to 50% of its treatment level at a compound dose of 60 ug. In kind it is functional, organism-based.

In the case of `CNCC(=O)N[C@@H](CCCN=C(N)N)C(=O)N[C@H](C(=O)N[C@@H](Cc1ccc(O)cc1)C(=O)N[C@H](C(=O)N[C@@H](Cc1c[nH]cn1)C(=O)N1CCC[C@H]1C(=O)N[C@H](C(=O)O)C(c1ccccc1)c1ccccc1)C(C)C)C(C)C` [listing 1 of 2 here], the Activity in [1] is listed as 284%.

For `CNCC(=O)N[C@@H](CCCN=C(N)N)C(=O)N[C@H](C(=O)N[C@@H](Cc1ccc(O)cc1)C(=O)N[C@H](C(=O)N[C@@H](Cc1c[nH]cn1)C(=O)N1CCC[C@H]1C(=O)N[C@@H](Cc1ccc(-c2ccccc2)cc1)C(=O)O)C(C)C)C(C)C` [listing 1 of 2 here], the Ki (as a rule, a measure of affinity in units of concentration, obtained from inhibition or displacement) in test [2] was found to be 1 nM; in test [3], 1.74 nM.

For the compound `CNCC(=O)N[C@@H](CCCN=C(N)N)C(=O)N[C@H](C(=O)N[C@@H](Cc1ccc(O)cc1)C(=O)N[C@H](C(=O)N[C@@H](Cc1c[nH]cn1)C(=O)N1CCC[C@H]1C(=O)N[C@H](Cc1ccc(-c2ccccc2)cc1)C(=O)O)C(C)C)C(C)C` [listing 1 of 2 here], the figures for the Activity in test [4], in [5] and in [6] were 7.2, 44.7 and 24.6, respectively.

Consider `CNCC(=O)N[C@@H](CCCN=C(N)N)C(=O)N[C@H](C(=O)N[C@@H](Cc1ccc(O)cc1)C(=O)N[C@H](C(=O)N[C@@H](Cc1c[nH]cn1)C(=O)N1CCC[C@H]1C(=O)N[C@H](C(=O)O)C(c1ccccc1)c1ccccc1)C(C)C)C(C)C` [listing 2 of 2 here], for which the Ki in test [2] is reported as 0.85 nM; in test [3], 1.23 nM.

For `CNCC(=O)N[C@@H](CCCN=C(N)N)C(=O)N[C@H](C(=O)N[C@@H](Cc1ccc(O)cc1)C(=O)N[C@H](C(=O)N[C@@H](Cc1c[nH]cn1)C(=O)N1CCC[C@H]1C(=O)NC1(C(=O)O)Cc2ccccc2C1)C(C)C)C(C)C` [listing 1 of 2 here], the Ki in test [2] worked out at 1.82 nM; in [3], 1.52 nM.

Turning to `CNCC(=O)N[C@@H](CCCN=C(N)N)C(=O)N[C@H](C(=O)N[C@@H](Cc1ccc(O)cc1)C(=O)N[C@H](C(=O)N[C@@H](Cc1c[nH]cn1)C(=O)N1CCC[C@H]1C(=O)N[C@H](Cc1ccc(-c2ccccc2)cc1)C(=O)O)C(C)C)C(C)C` [listing 2 of 2 here], the Ki was 0.46 nM in test [2] and 0.74 nM in test [3].

As to `CNCC(=O)N[C@@H](CCCN=C(N)N)C(=O)N[C@H](C(=O)N[C@@H](Cc1ccc(O)cc1)C(=O)N[C@H](C(=O)N[C@@H](Cc1c[nH]cn1)C(=O)N1CCC[C@H]1C(N)=O)C(C)C)C(C)C`, the Ki in test [2] is reported as 9310 nM; in test [3] it was 52.8 nM.

As for `CNCC(=O)N[C@@H](CCCN=C(N)N)C(=O)N[C@H](C(=O)N[C@@H](Cc1ccc(O)cc1)C(=O)N[C@H](C(=O)N[C@@H](Cc1c[nH]cn1)C(=O)N1CCC[C@@H]1C(=O)N[C@H](CC(C)C)C(=O)O)C(C)C)C(C)C`, the Activity turned out to be 3.9 in [7], 1.7 in [10] and 22.2 in test [11]. Besides, the figures for the Recovery time in test [8], in test [9] and in test [12] were 34 min, 72 min and 83 min, respectively.

In [1], `CNCC(=O)N[C@@H](CCCN=C(N)N)C(=O)N[C@H](C(=O)N[C@@H](Cc1ccc(O)cc1)C(=O)N[C@H](C(=O)N[C@@H](Cc1c[nH]cn1)C(=O)N1CCC[C@H]1C(=O)N[C@@H](C(=O)O)C(c1ccccc1)c1ccccc1)C(C)C)C(C)C` [listing 1 of 2 here] showed an Activity of 48%.

`CNCC(=O)N[C@@H](CCCN=C(N)N)C(=O)N[C@H](C(=O)N[C@@H](Cc1ccc(O)cc1)C(=O)N[C@H](C(=O)N[C@@H](Cc1c[nH]cn1)C(=O)N1CCC[C@H]1C(=O)N[C@@H](C(=O)O)C(c1ccccc1)c1ccccc1)C(C)C)C(C)C` [listing 2 of 2 here]: the Ki in [2] is on record as 1.64 nM; in test [3], 6.08 nM.

For the compound `CNCC(=O)N[C@@H](CCCN=C(N)N)C(=O)N[C@H](C(=O)N[C@@H](Cc1ccc(O)cc1)C(=O)N[C@H](C(=O)N[C@@H](Cc1c[nH]cn1)C(=O)N1CCC[C@H]1C(=O)NC1(C(=O)O)Cc2ccccc2C1)C(C)C)C(C)C` [listing 2 of 2 here], the Activity is 8.7 in test [4], 31.8 in test [5] and 16.2 in [6].

Compound H-NRVYVHPF-OH [ANGIOTENSIN AMIDE] showed an Activity in test [1] of 100%. For the same compound, the inhibition constant Ki in test [2] amounted to 1.64 nM; in test [3], 5.48 nM.

Turning to `CNCC(=O)N[C@@H](CCCN=C(N)N)C(=O)N[C@H](C(=O)N[C@@H](Cc1ccc(O)cc1)C(=O)N[C@H](C(=O)N[C@@H](Cc1c[nH]cn1)C(=O)N1CCC[C@H]1C(=O)N[C@@H](Cc1ccc(-c2ccccc2)cc1)C(=O)O)C(C)C)C(C)C` [listing 2 of 2 here], the Activity in test [4] is 9.2; in [5], 208.2; in test [6], 71.7.
